From ChEMBL document CHEMBL2429821, “A Casein kinase 1/Checkpoint kinase 1 pyrazolo-pyridine protein kinase inhibitor as novel activator of the p53 pathway” (Bioorg Med Chem Lett, 2013)
Blank lines part the entries; values can stand above or below the compound they belong to. Calls of active or inactive are those of the source. No cut-off for these calls is given here.

How the values were obtained:
A-375 [1] = test: Cell cycle arrest in human A375 cells assessed as accumulation at G2-M phase at 80 uM after 48 hrs by FACS flow cytometric analysis (reference value: 17.3%); format: functional
A-375 [2] = test: Cell cycle arrest in human A375 cells assessed as accumulation at S phase at 80 uM after 48 hrs by FACS flow cytometric analysis (reference value: 25.1%); format: functional
A-375 [3] = test: Cell cycle arrest in human A375 cells assessed as accumulation at sub-G1 phase at 80 uM after 48 hrs by FACS flow cytometric analysis (reference value: 2.17%); format: functional
A-375 [4] = test: Cell cycle arrest in human A375 cells assessed as accumulation at G0-G1 phase at 80 uM after 48 hrs by FACS flow cytometric analysis (reference value: 55.4%); format: functional
A-375 [5] = test: Cell cycle arrest in human A375 cells assessed as accumulation at G2-M phase at 40 uM after 48 hrs by FACS flow cytometric analysis (reference value: 17.3%); format: functional
A-375 [6] = test: Cell cycle arrest in human A375 cells assessed as accumulation at S phase at 40 uM after 48 hrs by FACS flow cytometric analysis (reference value: 25.1%); format: functional
A-375 [7] = test: Cell cycle arrest in human A375 cells assessed as accumulation at G0-G1 phase at 40 uM after 48 hrs by FACS flow cytometric analysis (reference value: 55.4%); format: functional
A-375 [8] = test: Cell cycle arrest in human A375 cells assessed as accumulation at sub-G1 phase at 40 uM after 48 hrs by FACS flow cytometric analysis (reference value: 2.17%); format: functional
A-375 [9] = test: Cell cycle arrest in human A375 cells assessed as accumulation at S phase at 20 uM after 48 hrs by FACS flow cytometric analysis (reference value: 25.1%); format: functional
A-375 [10] = test: Cell cycle arrest in human A375 cells assessed as accumulation at G2-M phase at 20 uM after 48 hrs by FACS flow cytometric analysis (reference value: 17.3%); format: functional
A-375 [11] = test: Cell cycle arrest in human A375 cells assessed as accumulation at G0-G1 phase at 20 uM after 48 hrs by FACS flow cytometric analysis (reference value: 55.4%); format: functional
A-375 [12] = test: Cell cycle arrest in human A375 cells assessed as accumulation at sub-G1 phase at 20 uM after 48 hrs by FACS flow cytometric analysis (reference value: 2.17%); format: functional
A-375 [13] = test: Cell cycle arrest in human A375 cells assessed as accumulation at G2-M phase at 10 uM after 48 hrs by FACS flow cytometric analysis (reference value: 17.3%); format: functional
A-375 [14] = test: Cell cycle arrest in human A375 cells assessed as accumulation at S phase at 10 uM after 48 hrs by FACS flow cytometric analysis (reference value: 25.1%); format: functional
A-375 [15] = test: Cell cycle arrest in human A375 cells assessed as accumulation at G0-G1 phase at 10 uM after 48 hrs by FACS flow cytometric analysis (reference value: 55.4%); format: functional
A-375 [16] = test: Cell cycle arrest in human A375 cells assessed as accumulation at sub-G1 phase at 10 uM after 48 hrs by FACS flow cytometric analysis (reference value: 2.17%); format: functional
A-375 [17] = test: Cytotoxicity against human A375 cells assessed as reduction in cell number at 10 to 40 uM after 24 hrs by light microscopic analysis relative to control; format: functional, cell-based
[18] = target: Mitogen-activated protein kinase 14 (Homo sapiens, UniProt Q16539); test: Inhibition of human p38alpha MAPK in presence of 50 uM ATP; conditions: read-out: IC50
Mitogen-activated protein kinase 14, sequence (Q16539 whole entry, canonical isoform): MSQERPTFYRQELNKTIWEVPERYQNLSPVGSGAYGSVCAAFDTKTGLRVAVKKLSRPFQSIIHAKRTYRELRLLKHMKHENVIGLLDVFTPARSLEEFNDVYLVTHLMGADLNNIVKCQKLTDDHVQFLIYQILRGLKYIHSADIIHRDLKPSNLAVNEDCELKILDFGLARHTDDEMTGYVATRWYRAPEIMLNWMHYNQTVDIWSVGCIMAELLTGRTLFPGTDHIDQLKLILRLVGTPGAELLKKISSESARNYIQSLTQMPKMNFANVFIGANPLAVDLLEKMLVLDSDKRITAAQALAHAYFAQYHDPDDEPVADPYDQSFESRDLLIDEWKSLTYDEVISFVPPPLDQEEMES

[19] = target: Casein kinase I isoform delta (Rattus norvegicus, UniProt Q06486); test: Inhibition of rat CK1delta in presence of 20 uM ATP
Casein kinase I isoform delta, sequence (Q06486 whole entry, canonical isoform): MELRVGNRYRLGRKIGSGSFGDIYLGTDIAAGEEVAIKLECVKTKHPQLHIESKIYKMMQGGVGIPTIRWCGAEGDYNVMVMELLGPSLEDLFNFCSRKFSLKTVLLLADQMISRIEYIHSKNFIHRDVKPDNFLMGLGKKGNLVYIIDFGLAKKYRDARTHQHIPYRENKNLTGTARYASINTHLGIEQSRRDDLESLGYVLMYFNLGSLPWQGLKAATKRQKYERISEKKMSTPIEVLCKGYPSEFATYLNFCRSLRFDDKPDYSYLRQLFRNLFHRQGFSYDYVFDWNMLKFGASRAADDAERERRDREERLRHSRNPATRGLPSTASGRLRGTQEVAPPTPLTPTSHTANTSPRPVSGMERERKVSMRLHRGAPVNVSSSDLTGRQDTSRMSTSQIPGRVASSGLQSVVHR

[20] = target: T1, Serine/threonine-protein kinase Chk1 (Homo sapiens, UniProt O14757); test: Inhibition of human CHK1 in presence of 20 uM ATP
T1 sequence (O14757 whole entry): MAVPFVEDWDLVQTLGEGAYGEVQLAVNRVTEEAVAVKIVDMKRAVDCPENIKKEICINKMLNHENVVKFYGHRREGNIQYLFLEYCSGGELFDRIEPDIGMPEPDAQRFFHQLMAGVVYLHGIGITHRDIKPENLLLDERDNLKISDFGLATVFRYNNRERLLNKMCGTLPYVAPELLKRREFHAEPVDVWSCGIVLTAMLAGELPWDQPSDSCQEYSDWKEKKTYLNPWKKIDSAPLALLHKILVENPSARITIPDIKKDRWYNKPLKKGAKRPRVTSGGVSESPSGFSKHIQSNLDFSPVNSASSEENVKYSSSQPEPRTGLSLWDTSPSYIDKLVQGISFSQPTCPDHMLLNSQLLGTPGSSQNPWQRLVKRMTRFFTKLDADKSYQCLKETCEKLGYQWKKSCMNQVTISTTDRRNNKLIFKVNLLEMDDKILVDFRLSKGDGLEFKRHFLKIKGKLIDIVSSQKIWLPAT

[21] = target: Rho-associated protein kinase 2 (Rattus norvegicus) (UniProt Q62868); test: Inhibition of rat ROCK2 assessed as residual activity at 10 uM relative to control
Rho-associated protein kinase 2 (Rattus norvegicus), sequence (Q62868 whole entry, looked up): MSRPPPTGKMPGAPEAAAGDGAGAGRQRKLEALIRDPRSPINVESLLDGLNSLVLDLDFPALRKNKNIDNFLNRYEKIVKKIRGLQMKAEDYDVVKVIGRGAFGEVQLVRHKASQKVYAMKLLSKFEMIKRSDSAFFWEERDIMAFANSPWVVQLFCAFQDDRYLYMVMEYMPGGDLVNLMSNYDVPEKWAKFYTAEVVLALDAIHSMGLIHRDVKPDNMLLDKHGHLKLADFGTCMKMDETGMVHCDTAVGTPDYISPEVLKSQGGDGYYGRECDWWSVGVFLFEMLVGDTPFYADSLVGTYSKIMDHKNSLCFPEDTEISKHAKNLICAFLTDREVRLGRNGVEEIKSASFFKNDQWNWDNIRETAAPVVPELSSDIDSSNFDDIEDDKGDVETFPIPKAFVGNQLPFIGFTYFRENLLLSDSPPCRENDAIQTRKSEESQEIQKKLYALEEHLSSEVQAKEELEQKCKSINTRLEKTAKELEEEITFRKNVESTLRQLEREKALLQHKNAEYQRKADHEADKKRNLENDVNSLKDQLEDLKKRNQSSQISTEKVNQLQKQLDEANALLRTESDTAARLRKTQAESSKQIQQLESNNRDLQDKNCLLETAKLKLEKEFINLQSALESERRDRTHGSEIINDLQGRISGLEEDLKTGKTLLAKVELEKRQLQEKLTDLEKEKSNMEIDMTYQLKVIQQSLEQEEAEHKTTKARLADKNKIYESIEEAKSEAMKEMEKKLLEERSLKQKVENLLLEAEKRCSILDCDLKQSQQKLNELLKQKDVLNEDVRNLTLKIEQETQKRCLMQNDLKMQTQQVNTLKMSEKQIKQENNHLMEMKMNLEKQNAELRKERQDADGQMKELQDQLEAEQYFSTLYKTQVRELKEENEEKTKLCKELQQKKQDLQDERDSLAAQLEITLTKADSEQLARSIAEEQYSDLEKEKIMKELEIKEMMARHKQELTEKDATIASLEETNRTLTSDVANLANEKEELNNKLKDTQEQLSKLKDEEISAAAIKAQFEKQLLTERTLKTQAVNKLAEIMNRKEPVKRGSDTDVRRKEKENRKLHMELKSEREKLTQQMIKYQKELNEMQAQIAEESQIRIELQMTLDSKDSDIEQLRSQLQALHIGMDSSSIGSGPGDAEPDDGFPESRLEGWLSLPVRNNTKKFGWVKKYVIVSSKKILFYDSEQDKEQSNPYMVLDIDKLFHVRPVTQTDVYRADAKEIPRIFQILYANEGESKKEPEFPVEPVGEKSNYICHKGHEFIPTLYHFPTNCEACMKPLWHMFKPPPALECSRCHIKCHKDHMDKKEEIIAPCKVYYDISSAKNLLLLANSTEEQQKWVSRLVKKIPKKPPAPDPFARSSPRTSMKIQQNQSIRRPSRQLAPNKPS

Rattus norvegicus [22] = species: Rattus norvegicus; test: Inhibition of rat AMPK assessed as residual activity at 10 uM relative to control
[23] = target: Proto-oncogene tyrosine-protein kinase Src (Homo sapiens) (UniProt P12931); test: Inhibition of human SRC assessed as residual activity at 10 uM relative to control
Proto-oncogene tyrosine-protein kinase Src (Homo sapiens), sequence (P12931 2-536 limits assumed): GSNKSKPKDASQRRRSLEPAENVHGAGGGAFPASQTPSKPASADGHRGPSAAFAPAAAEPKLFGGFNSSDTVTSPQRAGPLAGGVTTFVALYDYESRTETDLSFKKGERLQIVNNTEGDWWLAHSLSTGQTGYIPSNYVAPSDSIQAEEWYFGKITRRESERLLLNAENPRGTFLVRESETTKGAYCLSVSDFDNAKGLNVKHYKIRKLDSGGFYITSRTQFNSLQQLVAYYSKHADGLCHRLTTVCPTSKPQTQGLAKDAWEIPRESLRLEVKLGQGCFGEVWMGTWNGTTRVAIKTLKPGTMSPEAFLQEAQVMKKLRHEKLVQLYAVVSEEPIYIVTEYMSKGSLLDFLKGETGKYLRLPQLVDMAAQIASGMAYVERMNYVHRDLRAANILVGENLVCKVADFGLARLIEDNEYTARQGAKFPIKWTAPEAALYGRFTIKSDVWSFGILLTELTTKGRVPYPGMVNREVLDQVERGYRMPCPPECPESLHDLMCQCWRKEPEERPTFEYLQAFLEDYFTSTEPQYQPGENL

Oryctolagus cuniculus [24] = species: Oryctolagus cuniculus; test: Inhibition of rabbit MKK1 assessed as residual activity at 10 uM relative to control
[25] = target: Dual specificity tyrosine-phosphorylation-regulated kinase 1A (Rattus norvegicus) (UniProt Q63470); test: Inhibition of rat DYRK1alpha assessed as residual activity at 10 uM relative to control
[26] = target: Casein kinase I isoform delta (Rattus norvegicus) (UniProt Q06486); test: Inhibition of rat CK1delta assessed as residual activity at 10 uM relative to control
Casein kinase I isoform delta (Rattus norvegicus), sequence (Q06486 whole entry, looked up, canonical isoform): as the sequence (Q06486 whole entry, canonical isoform) above

[27] = target: Cyclin-dependent kinase 2 (Homo sapiens) (UniProt P24941); test: Inhibition of human CDK2 assessed as residual activity at 10 uM relative to control
[28] = target: T2, Casein kinase I/MDM2 (Homo sapiens) (UniProt Q00987+P48729); test: Inhibition of CK1-MDM2 complex in human A375 cells assessed as increase in […] protein level at 0.2 to 40 uM after 24 hrs by immunoblotting analysis; format: cell-based; conditions: A-375
T2 sequence (P48729 whole entry, looked up): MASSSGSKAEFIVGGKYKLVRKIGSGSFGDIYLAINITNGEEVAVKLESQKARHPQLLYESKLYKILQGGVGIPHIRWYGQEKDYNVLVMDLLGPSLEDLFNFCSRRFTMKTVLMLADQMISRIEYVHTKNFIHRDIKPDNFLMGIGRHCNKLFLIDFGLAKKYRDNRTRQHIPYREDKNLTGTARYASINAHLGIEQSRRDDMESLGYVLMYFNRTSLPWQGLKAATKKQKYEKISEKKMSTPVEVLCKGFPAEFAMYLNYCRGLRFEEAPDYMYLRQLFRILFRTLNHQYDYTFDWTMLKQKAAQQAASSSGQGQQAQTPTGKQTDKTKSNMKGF
T2 sequence (Q00987 whole entry, looked up): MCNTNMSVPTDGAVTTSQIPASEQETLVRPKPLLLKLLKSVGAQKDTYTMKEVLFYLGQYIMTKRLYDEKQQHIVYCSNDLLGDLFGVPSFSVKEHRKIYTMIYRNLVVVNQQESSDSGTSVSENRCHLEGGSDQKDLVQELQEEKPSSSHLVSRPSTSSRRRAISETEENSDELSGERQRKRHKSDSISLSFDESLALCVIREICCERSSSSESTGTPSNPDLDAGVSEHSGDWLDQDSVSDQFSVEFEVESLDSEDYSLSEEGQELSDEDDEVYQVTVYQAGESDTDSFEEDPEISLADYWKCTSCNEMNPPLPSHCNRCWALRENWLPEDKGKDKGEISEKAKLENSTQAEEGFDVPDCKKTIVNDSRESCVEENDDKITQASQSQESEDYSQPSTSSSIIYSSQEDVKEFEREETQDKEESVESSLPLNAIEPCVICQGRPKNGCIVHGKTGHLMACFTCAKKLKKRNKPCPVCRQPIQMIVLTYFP

[29] = target: T2, Casein kinase I/MDM2 (Homo sapiens); test: Inhibition of CK1-MDM2 complex in human A375 cells assessed as effect on p21 protein level at 0.2 to 40 uM after 24 hrs by immunoblotting analysis; format: cell-based; conditions: A-375
[30] = target: T2, Casein kinase I/MDM2 (Homo sapiens); test: Inhibition of CK1-MDM2 complex in human A375 cells assessed as decrease in MDM2 protein level at 0.2 to 40 uM after 24 hrs by immunoblotting analysis; format: cell-based; conditions: A-375
[31] = target: T2, Casein kinase I/MDM2 (Homo sapiens); test: Inhibition of CK1-MDM2 complex in human A375 cells assessed as increase in p53 protein level at 0.2 to 40 uM after 24 hrs by immunoblotting analysis; format: cell-based; conditions: A-375
[32] = target: Rho-associated protein kinase 2 (Rattus norvegicus) (UniProt Q62868); test: Inhibition of rat ROCK2 assessed as residual activity at 25 uM relative to control
Bos taurus = species: Bos taurus; test: Inhibition of cow PKA assessed as residual activity at 25 uM relative to control
Rattus norvegicus [33] = species: Rattus norvegicus; test: Inhibition of rat AMPK assessed as residual activity at 25 uM relative to control
[34] = target: Proto-oncogene tyrosine-protein kinase Src (Homo sapiens) (UniProt P12931); test: Inhibition of human SRC assessed as residual activity at 25 uM relative to control
Oryctolagus cuniculus [35] = species: Oryctolagus cuniculus; test: Inhibition of rabbit MKK1 assessed as residual activity at 25 uM relative to control
[36] = target: Dual specificity tyrosine-phosphorylation-regulated kinase 1A (Rattus norvegicus) (UniProt Q63470); test: Inhibition of rat DYRK1alpha assessed as residual activity at 25 uM relative to control
[37] = target: Casein kinase I isoform delta (Rattus norvegicus) (UniProt Q06486); test: Inhibition of rat CK1delta assessed as residual activity at 25 uM relative to control
[38] = target: Cyclin-dependent kinase 2 (Homo sapiens) (UniProt P24941); test: Inhibition of human CDK2 assessed as residual activity at 25 uM relative to control

- IC50 [18]: 4150 nM
- IC50 [19]: 353 nM
- IC50 [20]: Not Active
- Activity [21]: 105%
- Activity (Rattus norvegicus [22]): 98%
- Activity [23]: 82%
- Activity (Oryctolagus cuniculus [24]): 93%
- Activity [25]: 86%
- Activity [26]: 4%
- Activity [27]: 113%
SMILES: NC(=O)c1ccc(-c2nc(-c3ccc4c(c3)OCCO4)c(-c3ccccn3)[nH]2)cc1
- Activity (A-375 [1]): 4.9%
- Activity (A-375 [2]): 9.33%
- Activity (A-375 [3]): 32.7%
- Activity (A-375 [4]): 52.9%
- Activity (A-375 [5]): 9.66%
- Activity (A-375 [6]): 24.3%
- Activity (A-375 [7]): 43.1%
- Activity (A-375 [8]): 22.3%
- Activity (A-375 [9]): 31.9%
- Activity (A-375 [10]): 18.8%
- Activity (A-375 [11]): 41.9%
- Activity (A-375 [12]): 6.96%
- Activity (A-375 [13]): 13.7%
- Activity (A-375 [14]): 26.6%
- Activity (A-375 [15]): 55.4%
- Activity (A-375 [16]): 3.92%
- Activity (A-375 [17]): Active

- inhibition [28]: Active
- inhibition [29]: inactive
- inhibition [30]: Active
- inhibition [31]: Active
SMILES: O=C(Nc1n[nH]c2ncc(-c3cccnc3)cc12)C1CCCC1

SMILES: COc1cc(OC)c(C=C2C(=O)Nc3ccccc32)c(OC)c1
- Activity [32]: 78%
- Activity (Bos taurus): 82%
- Activity (Rattus norvegicus [33]): 71%
- Activity [34]: 70%
- Activity (Oryctolagus cuniculus [35]): 86%
- Activity [36]: 73%
- Activity [37]: 9%
- Activity [38]: 83%
